± gives the expanded uncertainty stated by the source.
What was measured:
[1] = Liquid; for mass density: 298.15 K, 101.33 kPa
[2] = refractive index (Na D-line) (dimensionless); conditions: 298.15 K; 101.33 kPa; Liquid; Standard Abbe refractometry

SMILES | mass density [1] [kg/m3] | vapor or sublimation pressure ([1]; 372.31 K) [kPa] | refractive index [2] | vapor or sublimation pressure ([1]; 396.65 K) [kPa] | vapor or sublimation pressure ([1]; 419.67 K) [kPa] | vapor or sublimation pressure ([1]; 367.78 K) [kPa]
CCCC(=O)OC [methyl butanoate] | 892.16 ± 0.34 | 93.32 ± 1.9 | 1.3847 ± 0.0007 | – | – | –
CCCCC(=O)OC [methyl pentanoate] | 884.8 ± 0.35 | – | 1.3971 ± 0.0007 | 93.32 ± 2.4 | – | –
CCCCCC(=O)OC [methyl hexanoate] | 879.47 ± 0.36 | – | 1.4048 ± 0.0007 | – | 93.32 ± 2.4 | –
CCC#N [propanenitrile] | 776.85 ± 0.51 | – | 1.36368 ± 0.00073 | – | – | 93.32 ± 1.9

Source: the NIST ThermoML archive (doi:10.1021/je060469v)
